In test [1] the target is T1, Alkaline phosphatase, tissue-nonspecific isozyme (Homo sapiens, UniProt P05186).
T1 sequence (P05186 whole entry): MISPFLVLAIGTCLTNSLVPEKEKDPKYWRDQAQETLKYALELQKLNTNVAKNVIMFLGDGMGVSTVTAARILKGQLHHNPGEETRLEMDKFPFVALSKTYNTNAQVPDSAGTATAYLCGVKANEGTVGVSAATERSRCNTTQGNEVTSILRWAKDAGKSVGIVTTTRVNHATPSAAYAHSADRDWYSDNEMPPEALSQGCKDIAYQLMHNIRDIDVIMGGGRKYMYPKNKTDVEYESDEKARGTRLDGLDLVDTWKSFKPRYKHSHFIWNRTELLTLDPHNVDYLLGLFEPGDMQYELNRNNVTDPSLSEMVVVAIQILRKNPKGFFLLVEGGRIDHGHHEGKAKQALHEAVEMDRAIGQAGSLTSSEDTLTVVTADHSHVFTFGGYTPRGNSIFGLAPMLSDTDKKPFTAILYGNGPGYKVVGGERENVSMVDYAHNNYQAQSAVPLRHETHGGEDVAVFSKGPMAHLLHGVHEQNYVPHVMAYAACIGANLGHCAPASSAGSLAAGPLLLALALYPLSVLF
In words: Inhibition of human TNAP using CDP-star as substrate pretreated for 10 mins followed by substrate addition measured after 10 mins by […] method.

For test [2], the target named is T2, Intestinal-type alkaline phosphatase (Homo sapiens, UniProt P09923). In words: Inhibition of human IAP using CDP-star as substrate pretreated for 10 mins followed by substrate addition measured after 10 mins by […] method.
Target sequence in this assay (P09923 whole entry): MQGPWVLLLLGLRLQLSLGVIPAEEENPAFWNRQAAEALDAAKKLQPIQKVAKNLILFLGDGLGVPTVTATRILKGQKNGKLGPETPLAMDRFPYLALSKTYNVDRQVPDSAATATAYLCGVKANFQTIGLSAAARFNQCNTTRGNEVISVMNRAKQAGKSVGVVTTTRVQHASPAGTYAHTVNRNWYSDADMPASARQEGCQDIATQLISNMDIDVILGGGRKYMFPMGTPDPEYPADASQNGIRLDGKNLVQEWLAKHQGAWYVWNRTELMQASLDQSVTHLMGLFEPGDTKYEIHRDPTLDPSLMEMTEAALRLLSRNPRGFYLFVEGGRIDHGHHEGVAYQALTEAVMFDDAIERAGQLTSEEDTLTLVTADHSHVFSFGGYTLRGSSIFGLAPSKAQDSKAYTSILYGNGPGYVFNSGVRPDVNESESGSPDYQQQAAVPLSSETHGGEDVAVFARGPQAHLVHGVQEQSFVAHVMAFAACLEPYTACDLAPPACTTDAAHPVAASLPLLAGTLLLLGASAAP
In test [3] the target is T2, Intestinal-type alkaline phosphatase. Briefly: Potency index, ratio of levamisole IC50 to compound IC50 for human IAP.
Target sequence in this assay (P09923 20-503 limits assumed): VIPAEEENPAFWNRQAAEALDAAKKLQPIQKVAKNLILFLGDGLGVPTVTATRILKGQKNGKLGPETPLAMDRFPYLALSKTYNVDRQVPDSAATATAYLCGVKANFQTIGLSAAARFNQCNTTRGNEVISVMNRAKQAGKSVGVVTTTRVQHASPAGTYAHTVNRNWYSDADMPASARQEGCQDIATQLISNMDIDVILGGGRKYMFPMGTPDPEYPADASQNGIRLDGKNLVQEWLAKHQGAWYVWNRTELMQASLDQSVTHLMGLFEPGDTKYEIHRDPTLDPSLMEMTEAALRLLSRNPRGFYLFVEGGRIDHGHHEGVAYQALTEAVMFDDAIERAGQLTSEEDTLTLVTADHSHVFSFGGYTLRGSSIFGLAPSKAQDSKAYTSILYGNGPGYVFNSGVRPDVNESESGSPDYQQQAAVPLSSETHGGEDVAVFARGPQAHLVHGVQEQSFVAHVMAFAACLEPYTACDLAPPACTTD

The record followed here is ChEMBL document CHEMBL4011599, “Coumarin sulfonates: New alkaline phosphatase inhibitors; in vitro and in silico studies” (Eur J Med Chem, 2017).

Consider `N[C@@H](Cc1ccccc1)C(=O)O` [PHENYLALANINE], for which the concentration for half-maximal inhibition (IC50) in test [1] (read-out: IC50) is 100000 nM.
As for `Cc1c(C#N)c(=O)oc2cc(OS(=O)(=O)c3cc(Cl)ccc3Cl)ccc12`, the IC50 came to 2470 nM in test [1] (read-out: IC50) and 2260 nM in test [2] (read-out: IC50).
As to `CCCCCCCCS(=O)(=O)Oc1ccc2c(C)c(C#N)c(=O)oc2c1`, the half-inhibitory concentration (IC50) worked out at 920 nM in test [1] (read-out: IC50) and 2810 nM in test [2] (read-out: IC50). In addition, the Ratio IC50 in test [3] is 7.
`Cc1c(C#N)c(=O)oc2cc(OS(=O)(=O)c3ccccc3)ccc12`: the IC50 in test [1] (read-out: IC50) is 3530 nM; in test [2], “Not Active”.
`Cc1c(Cl)c(=O)oc2cc(OS(=O)(=O)c3ccccc3)ccc12`: the IC50 in test [1] (read-out: IC50) came to 10300 nM; in test [2] (read-out: IC50) it was 5520 nM.
Regarding `Cc1c(C#N)c(=O)oc2cc(OS(C)(=O)=O)ccc12`, the 50% inhibitory concentration (IC50) in test [1] (read-out: IC50) is 1990 nM; in test [2], “Not Active”.
For the compound `Cc1c(C#N)c(=O)oc2cc(OS(=O)(=O)c3cccc([N+](=O)[O-])c3)ccc12`, the IC50 is 2420 nM in test [1] (read-out: IC50) and 5160 nM in test [2] (read-out: IC50).
The corresponding values for `CCCCS(=O)(=O)Oc1ccc2c(C)c(Cl)c(=O)oc2c1` are 1640 nM and 3220 nM.
For the compound `c1ccc([C@H]2CN3CCSC3=N2)cc1` [LEVAMISOLE], the 50% inhibitory concentration (IC50) in test [2] (read-out: IC50) was 20200 nM.
On to `CCCCCCCCS(=O)(=O)Oc1ccc2c(C)cc(=O)oc2c1OS(=O)(=O)CCCCCCCC`, for which the IC50 in test [1] (read-out: IC50) is 920 nM; in test [2] (read-out: IC50), 10300 nM.
In the case of `CCS(=O)(=O)Oc1ccc2c(C)c(C#N)c(=O)oc2c1`, the results for the IC50 entry in test [1] and in test [2] (read-out: IC50) were “Not Active” and 4060 nM, respectively.
Take `Cc1cc(=O)oc2cc(OS(=O)(=O)c3ccc(Cl)c([N+](=O)[O-])c3)ccc12`: the half-inhibitory concentration (IC50) in test [1] (read-out: IC50) was 2310 nM; in test [2] (read-out: IC50) it was 2720 nM.
